{"source": "patent US4740233A", "about": "“Substituted 1,2,4-triazolo[1,5-a]-pyrimidine-2-sulfonamides and compositions and methods of controlling undesired vegetation and suppressing the nitrification of ammonium nitrogen in soil” (The Dow Chemical Company, priority 1986, dated 1988)", "key": {"wheat [1]": {"system": "wheat", "experiment": "Preemergent control of plant species", "format": "in vivo, Triticum aestivum", "settings": "Triticum aestivum, pre-emergence, 336 h; 0.25 lb/acre; read-out: percent preemergent control", "in_short": "(§1)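 Test compositions were applied evenly to the surface of freshly seeded soil beds and kept under greenhouse conditions for two weeks. Percent control reflects growth reduction compared with water-treated beds of the same species.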"}, "rape": {"system": "rape", "experiment": "Postemergent control of plant species", "format": "in vivo, Brassica napus", "settings": "Brassica napus, post-emergence, 336 h, read-out: percent postemergent control", "in_short": "(§2)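 Spray emulsion: acetone stock at twice final concentration plus equal volume water with 0.1% wetting agent, applied to separated greenhouse beds at 2-4 leaf stage. Assessed at ~two weeks; score reflects growth reduction compared with untreated plants.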"}, "sugar beet [2]": {"system": "sugar beet", "experiment": "Postemergent control of plant species", "format": "in vivo, Beta saccharifera", "settings": "Beta vulgaris, post-emergence, 336 h, read-out: percent postemergent control", "in_short": "as §2"}, "pigweed [3]": {"system": "pigweed", "experiment": "Postemergent control of plant species", "format": "in vivo, Amaranthus spp.", "settings": "Amaranthus retroflexus, post-emergence, 336 h, read-out: percent postemergent control", "in_short": "as §2"}, "sorghum": {"system": "sorghum", "experiment": "Postemergent control of plant species", "format": "in vivo, Sorghum vulgare", "settings": "Sorghum, post-emergence, 336 h, read-out: percent postemergent control", "in_short": "as §2"}, "wheat [4]": {"system": "wheat", "experiment": "Postemergent control of plant species", "format": "in vivo, Triticum aestivum", "settings": "Triticum aestivum, post-emergence, 336 h, read-out: percent postemergent control", "in_short": "as §2"}, "jimsonweed [5]": {"system": "jimsonweed", "experiment": "Postemergent control of plant species", "format": "in vivo, Datura stramonium", "settings": "Datura stramonium, post-emergence, 336 h, read-out: percent postemergent control", "in_short": "as §2"}, "jimsonweed [6]": {"system": "jimsonweed", "experiment": "Preemergent control of plant species", "format": "in vivo, Datura stramonium", "settings": "Datura stramonium, pre-emergence, 336 h; 0.25 lb/acre; read-out: percent preemergent control", "in_short": "as §1"}, "johnson grass [7]": {"system": "johnson grass", "experiment": "Postemergent control of plant species", "format": "in vivo, Sorghum halepense", "settings": "Sorghum halepense, post-emergence, 336 h, read-out: percent postemergent control", "in_short": "as §2"}, "cocklebur": {"system": "cocklebur", "experiment": "Postemergent control of plant species", "format": "in vivo, Xanthium spp.", "settings": "Xanthium strumarium, post-emergence, 336 h, read-out: percent postemergent control", "in_short": "as §2"}, "rice": {"system": "rice", "experiment": "Preemergent control of plant species", "format": "in vivo, Oryza sativa", "settings": "Oryza sativa, pre-emergence, 336 h; 0.25 lb/acre; read-out: percent preemergent control", "in_short": "as §1"}, "[8]": {"system": "nitrification of ammonium nitrogen", "experiment": "Suppression of nitrification of ammonium nitrogen in soil", "settings": "27° C.", "in_short": "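Value is % NH4-N remaining after a two-week, 27° C incubation of treated soil held at 1/3 bar tension moisture. Nitrate was measured with an ion-selective electrode after extraction with ammonium sulfate solution and 10 min shaking.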"}, "yellow foxtail": {"system": "yellow foxtail", "experiment": "Postemergent control of plant species", "format": "in vivo, Setaria lutescens", "settings": "Setaria, post-emergence, 336 h, read-out: percent postemergent control", "in_short": "as §2"}, "wild oats [9]": {"system": "wild oats", "experiment": "Preemergent control of plant species", "format": "in vivo", "settings": "Avena fatua, pre-emergence, 336 h; 0.25 lb/acre; read-out: percent preemergent control", "in_short": "as §1"}, "barnyardgrass": {"system": "barnyardgrass", "experiment": "Postemergent control of plant species", "format": "in vivo, Echinochloa crusgalli", "settings": "Echinochloa crus-galli, post-emergence, 336 h, read-out: percent postemergent control", "in_short": "as §2"}, "soybean": {"system": "soybean", "experiment": "Postemergent control of plant species", "format": "in vivo, Glycine max.", "settings": "Glycine max, post-emergence, 336 h, read-out: percent postemergent control", "in_short": "as §2"}, "wild oats [10]": {"system": "wild oats", "experiment": "Postemergent control of plant species", "format": "in vivo, Avena fatua", "settings": "Avena fatua, post-emergence, 336 h, read-out: percent postemergent control", "in_short": "as §2"}, "velvetleaf": {"system": "velvetleaf", "experiment": "Postemergent control of plant species", "format": "in vivo, Abutilon theophrasti", "settings": "Abutilon theophrasti, post-emergence, 336 h, read-out: percent postemergent control", "in_short": "as §2"}, "yellow nutsedge [11]": {"system": "yellow nutsedge", "experiment": "Postemergent control of plant species", "format": "in vivo, Cyperus esculentus", "settings": "Cyperus, post-emergence, 336 h, read-out: percent postemergent control", "in_short": "as §2"}, "pigweed [12]": {"system": "pigweed", "experiment": "Preemergent control of plant species", "format": "in vivo, Amaranthus spp.", "settings": "Amaranthus retroflexus, pre-emergence, 336 h; 0.25 lb/acre; read-out: percent preemergent control", "in_short": "as §1"}, "johnson grass [13]": {"system": "johnson grass", "experiment": "Preemergent control of plant species", "format": "in vivo, Sorghum halepense", "settings": "Sorghum halepense, pre-emergence, 336 h; 0.25 lb/acre; read-out: percent preemergent control", "in_short": "as §1"}, "cotton": {"system": "cotton", "experiment": "Preemergent control of plant species", "format": "in vivo, Gossypium spp.", "settings": "Gossypium hirsutum, pre-emergence, 336 h; 0.25 lb/acre; read-out: percent preemergent control", "in_short": "as §1"}, "yellow nutsedge [14]": {"system": "yellow nutsedge", "experiment": "Preemergent control of plant species", "format": "in vivo, Cyperus esculentus", "settings": "Cyperus, pre-emergence, 336 h; 0.25 lb/acre; read-out: percent preemergent control", "in_short": "as §1"}, "sugar beet [15]": {"system": "sugar beet", "experiment": "Preemergent control of plant species", "format": "in vivo, Beta saccharifera", "settings": "Beta vulgaris, pre-emergence, 336 h; 0.25 lb/acre; read-out: percent preemergent control", "in_short": "as §1"}}}
{"compound": "Cc1cc(C)n2nc(S(=O)(=O)Nc3ccc(Cl)cc3C(F)(F)F)nc2n1", "note": "[Compound 34]", "values": [{"measurement": "plant injury at 280.212 g/ha", "setting": "wheat [1]", "result": 0, "unit": "%"}, {"measurement": "plant injury at 500 ppm", "setting": "rape", "result": 100, "unit": "%"}, {"measurement": "plant injury at 500 ppm", "setting": "sugar beet [2]", "result": 100, "unit": "%"}, {"measurement": "pest or weed control at 500 ppm", "setting": "pigweed [3]", "result": 100, "unit": "%"}, {"measurement": "plant injury at 500 ppm", "setting": "sorghum", "result": 60, "unit": "%"}, {"measurement": "plant injury at 500 ppm", "setting": "wheat [4]", "result": 0, "unit": "%"}, {"measurement": "pest or weed control at 500 ppm", "setting": "jimsonweed [5]", "result": 90, "unit": "%"}, {"measurement": "pest or weed control at 280.212 g/ha", "setting": "jimsonweed [6]", "result": 0, "unit": "%"}, {"measurement": "pest or weed control at 500 ppm", "setting": "johnson grass [7]", "result": 20, "unit": "%"}, {"measurement": "pest or weed control at 500 ppm", "setting": "cocklebur", "result": 100, "unit": "%"}, {"measurement": "plant injury at 280.212 g/ha", "setting": "rice", "result": 40, "unit": "%"}, {"measurement": "% NH4-N Remaining After 2 Weeks Incubation", "setting": "[8]; 0.01 ppm", "result": 11, "unit": "%"}, {"measurement": "% NH4-N Remaining After 2 Weeks Incubation", "setting": "[8]; 0.1 ppm", "result": 51, "unit": "%"}, {"measurement": "% NH4-N Remaining After 2 Weeks Incubation", "setting": "[8]; 1 ppm", "result": 78, "unit": "%"}, {"measurement": "% NH4-N Remaining After 2 Weeks Incubation", "setting": "[8]; 10 ppm", "result": 90, "unit": "%"}, {"measurement": "pest or weed control at 500 ppm", "setting": "yellow foxtail", "result": 0, "unit": "%"}, {"measurement": "pest or weed control at 280.212 g/ha", "setting": "wild oats [9]", "result": 0, "unit": "%"}, {"measurement": "pest or weed control at 500 ppm", "setting": "barnyardgrass", "result": 0, "unit": "%"}, {"measurement": "plant injury at 500 ppm", "setting": "soybean", "result": 90, "unit": "%"}, {"measurement": "pest or weed control at 500 ppm", "setting": "wild oats [10]", "result": 0, "unit": "%"}, {"measurement": "pest or weed control at 500 ppm", "setting": "velvetleaf", "result": 100, "unit": "%"}, {"measurement": "pest or weed control at 500 ppm", "setting": "yellow nutsedge [11]", "result": 60, "unit": "%"}, {"measurement": "pest or weed control at 280.212 g/ha", "setting": "pigweed [12]", "result": 50, "unit": "%"}, {"measurement": "pest or weed control at 280.212 g/ha", "setting": "johnson grass [13]", "result": 80, "unit": "%"}, {"measurement": "plant injury at 280.212 g/ha", "setting": "cotton", "result": 80, "unit": "%"}, {"measurement": "pest or weed control at 280.212 g/ha", "setting": "yellow nutsedge [14]", "result": 70, "unit": "%"}, {"measurement": "plant injury at 280.212 g/ha", "setting": "sugar beet [15]", "result": 90, "unit": "%"}]}
